# Reference: US20140363526A1, “SYNERGISTIC FORMULATION OF PLANT EXTRACTS FOR HEPATIC AND ADRENAL DISORDERS” (Bioved Pharmaceuticals, Inc., priority 2013, published 2014)
# Test system: dexamethasone induced triglyceride synthesis in human subcutaneous pre-adipocytes
# Test: Inhibition of long term dexamethasone induced triglyceride synthesis
# Assay type: cell-based
# Details: single extracts 1 μg/ml, combined formulation 10 μg/ml, vs DMSO control
# Experimental: The study was conducted at a reputed US Contract Research Lab which has access to pooled human subcutaneous pre-adipocytes (female, average age 54.2, average BMI 27.9) from twelve different donors. These were cultured in 96-well plates in DMEM/Ham's F-12 (1:1, v/v) with 10% fetal bovine serum and differentiated according to a standard protocol. The next day, the pre-adipocyte medium was removed and replaced with differentiation medium; namely insulin, dexamethasone and IBMX (3-isobutyl-1-methylxanthine, a competitive nonselective phosphodiesterase inhibitor and a nonselective adenosine receptor antagonist. The media containing the formulations were prepared by different methods (individually and combined). After seven days, 90 μl of differentiation medium was removed and replaced with 120 μl of adipocyte medium (containing dexamethasone and insulin in DMEM). After seven more days, cells were assayed for cytotoxicity and cellular triglyceride content.
# Cellular triglycerides were measured by a two-step procedure. […] After 15 minutes, the optical density of each well of the new plate was measured at 540 nm. The absorbance values of the unknown samples were converted to glycerol concentrations by correlation to the glycerol concentration standards using the generated linear regression equation.
substance,measurement,value
TNF-a,inhibition of TG synthesis,significantly reduced TG synthesis
